Data taken from PubChem BioAssay (NCI).
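Following 48 hours of exposure in 96-well plates, responses at five concentrations were used to interpolate endpoints linearly. GI50 marks 50% less growth. TGI marks complete inhibition of growth.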

What was measured:
Assay in all cases: NCI-60 cell line screen, 48 h
[1] = test system: ACHN renal
[2] = test system: HCT-15 colon
[3] = test system: HOP-62 NSCLC
[4] = test system: IGROV1 ovarian
[5] = test system: KM12 colon
[6] = test system: RPMI-8226 leukemia
[7] = test system: UO-31 renal
[8] = test system: SF-539 CNS

SMILES	TGI [1]	TGI [2]	TGI [3]	TGI [4]	TGI [5]	TGI [6]	TGI [7]	TGI [8]	GI50 [1]	GI50 [2]	GI50 [3]	GI50 [4]	GI50 [5]	GI50 [6]	GI50 [8]	GI50 [7]
NC(Cc1c[nH]c2ccc([N+](=O)[O-])cc12)C(=O)O (configuration not stated)	> 100 µM	> 100 µM	> 100 µM	> 100 µM	> 100 µM	> 100 µM	> 100 µM									
CC(=O)Nc1cc2cc(NS(=O)(=O)c3ccc(Cl)c(Cl)c3)ccc2oc1=O	> 100 µM	> 100 µM	46.7 µM	> 100 µM	92.3 µM	> 100 µM	> 100 µM	56.1 µM								
Cn1cc(C2=C(c3cn(CCCN)c4ccccc34)C(=O)NC2=O)c2ccccc21	19.7 µM	> 25 µM	17 µM	> 19.7 µM	14.2 µM	12.5 µM	> 18.8 µM	6.86 µM	5.53 µM	5.14 µM	6.09 µM	8.95 µM	5.44 µM	5.91 µM	3.44 µM	5.41 µM
CS(=O)(=O)c1cccc(Nc2ncc3cc(-c4ccccc4Cl)ccc3n2)c1	> 33.3 µM	> 33.3 µM	> 33.3 µM	12.4 µM	> 33.3 µM	21.4 µM	6.41 µM	25.5 µM	1.01 µM	0.821 µM	1.3 µM	1.1 µM	1.2 µM	1.47 µM	0.94 µM	0.803 µM
COC1C=COC2(C)Oc3c(C)c(O)c4c(O)c(c(C5SCCS5)c(O)c4c3C2=O)NC(=O)/C(C)=C\C=CC(C)C(O)C(C)C(O)C(C)C(OC(C)=O)C1C (configuration not stated)	10.7 µM	21.8 µM	46 µM	22.4 µM	30.6 µM	8.58 µM	26.7 µM	20.9 µM								
O=C(c1ccc([N+](=O)[O-])cc1)C(Br)C(Br)c1ccnc2ccccc12 (configuration not stated)	17 µM	27.3 µM	29.7 µM	30 µM	5.13 µM	5.91 µM	3.58 µM	15.3 µM								
O=C(NCCOCCOCCOCCNC(=O)c1cc2c(o1)C(=O)c1ccccc1C2=O)NC12CC3CC(CC(C3)C1)C2	4.21 µM	3.68 µM	3.53 µM	8.53 µM	13 µM	5.63 µM	3.77 µM	3.16 µM	1.75 µM	1.58 µM	2.03 µM	2.11 µM	3.34 µM	1.87 µM	1.59 µM	1.69 µM
CC(=O)/C(Br)=C/c1ccc(Br)o1	22.2 µM	16.1 µM	59.2 µM	29.2 µM	25.9 µM	13.1 µM	29.1 µM	10.8 µM	9.5 µM	4.2 µM	24.6 µM	10.2 µM	12 µM	4.73 µM	5 µM	10.2 µM
Oc1[nH]c2ccccc2c1/C=c1/ccc2c(c1)N=C(c1ccc(C(F)(F)F)cc1)N=2	17.4 µM	20.3 µM	15.6 µM	13.3 µM	12.7 µM	4 µM	13 µM	21.1 µM	3.24 µM	4.09 µM	4.94 µM	3.01 µM	1.09 µM	1.34 µM	7.45 µM	2.48 µM
c1ccc(Oc2ccc(Nc3ncc(-c4ccccc4)o3)cc2)cc1	> 25 µM	> 25 µM	> 25 µM	> 25 µM	> 25 µM	> 25 µM	> 25 µM	> 25 µM	> 25 µM	> 25 µM	> 25 µM	> 25 µM	> 25 µM	> 25 µM	> 25 µM	> 25 µM
COc1ccc(-c2cn(-c3ccc(OC)c(OC)c3)c(=O)[nH]2)cc1	> 100 µM	> 100 µM	> 100 µM	> 100 µM	> 100 µM	> 100 µM	> 100 µM	> 100 µM	> 100 µM	> 100 µM	> 100 µM	> 100 µM	92.1 µM	> 100 µM	> 100 µM	> 100 µM
COc1ccccc1/C=C\C(=O)C1COCN1 (configuration not stated)	26.3 µM	35.8 µM	57.4 µM	64.6 µM	24.6 µM	7.53 µM	44 µM	38.5 µM								
COc1cc(-c2nc3ccccc3o2)cc(CN2CCCCC2)c1O	83.8 µM	26 µM	9.96 µM	> 100 µM	16.6 µM	> 100 µM	21.8 µM	7.68 µM	8.96 µM	1.05 µM	2.58 µM	14 µM	2.39 µM	2.85 µM	2.93 µM	1.92 µM
COc1cc([N+](=O)[O-])c(S(=O)(=O)O)cc1-n1nc(C(=O)Nc2ccccc2)n[n+]1-c1cc(S(=O)(=O)[O-])c([N+](=O)[O-])cc1OC	> 100 µM	> 100 µM	> 100 µM	> 100 µM	> 100 µM	> 100 µM	> 100 µM									
C=C1C(=O)O[C@H]2[C@H]1CC/C(COC(=O)/C=C\C(=O)NCc1ccc(Cn3c(=O)sn(CCI)c3=O)cc1)=C\CC[C@@]1(C)O[C@@H]21	3.74 µM	5.42 µM	28.6 µM	11.9 µM	24.5 µM		8.47 µM	9.51 µM	1.93 µM	2.1 µM	15.1 µM	3.17 µM	11.5 µM		3.36 µM	2.56 µM
CCOC(=O)c1[nH]c2cc(OC)c(OC)cc2c1CN(C)C	> 100 µM	> 100 µM		> 100 µM	> 100 µM	> 100 µM	> 100 µM	> 100 µM								
Cc1ccc(Cl)c(NS(=O)(=O)c2ccc(-c3cnc(C4CC4)o3)cc2)c1	> 72.7 µM	18.2 µM	> 83.7 µM	> 100 µM	22.4 µM	24.8 µM	> 100 µM	1.54 µM	0.205 µM	0.055 µM	0.268 µM	0.129 µM	0.07 µM	0.318 µM	0.0803 µM	0.275 µM
COc1ccccc1[As]=[As]c1ccccc1OC (configuration not stated)	0.186 µM	0.118 µM	0.164 µM	0.209 µM	0.24 µM	0.0832 µM	0.24 µM	0.144 µM	0.0613 µM	0.0288 µM	0.05 µM	0.0414 µM	0.11 µM	0.0278 µM	0.0383 µM	0.0923 µM
